{"source": "patent US10143669B2", "about": "“Use of short chain fatty acids in cancer prevention” (Temple University-Of The Commonwealth System of Higher …, priority 2015, dated 2018)", "origin": "cited, not measured here", "key": {"HBx transgenic mice": {"system": "HBx transgenic mice", "settings": "Arzumanyan A et al., Cancer Res, 2012"}, "established tumor": {"system": "established tumor", "settings": "Bindels L B et al., Br J Cancer, 2012"}, "[1]": {"system": "Hepatocellular carcinoma (HCC)", "settings": "Peck-Radosavljevic M, Liver Cancer, 2014"}}, "data": [{"smiles": "CS(=O)(=O)c1ccc(C(=O)Nc2ccc(Cl)c(-c3ccccn3)c2)c(Cl)c1", "note": "[GDC-0449]", "values": [{"measurement": "number and size of tumors in HBx transgenic mice", "setting": "HBx transgenic mice", "result": "decreased the number and size of tumors"}]}, {"smiles": "CCC(=O)O", "note": "[proprionate]", "values": [{"measurement": "growth of an established tumor", "setting": "established tumor", "result": "reduce the growth"}]}, {"smiles": "CNC(=O)c1cc(Oc2ccc(NC(=O)Nc3ccc(Cl)c(C(F)(F)F)c3)cc2)ccn1", "note": "[sorafenib]", "values": [{"measurement": "life expectancy extended, average", "setting": "[1]", "result": 3, "unit": "months"}]}]}
